Measurements as given in patent publication US4745067A, “L-aminoacylases” (Microbial Chemistry Research Foundation, priority 1985, dated 1988).
“Also recorded” adds a separate entry of the source. Read-outs that look alike come from different tables or passages of the source. Blank lines part the entries; values can stand above or below the molecule they belong to.

Tests used:
L-aminoacylase S1 [1] = assay: Substrate profile of L-aminoacylase S1; format: biochemical, Streptomyces hachijoensis; settings: for Relative activity (%): compound used as substrate, L-N-acetyl-methionine evaluated to be 100
Procedure: (§1) The enzymatic activity was measured by using N-acyl derivatives of various amino acids as the substrate.

L-aminoacylase S2 [2] = assay: Substrate profile of L-aminoacylase S2; format: biochemical, Streptoverticillium rimofaciens; settings: for Relative activity (%): compound used as substrate, L-N-acetyl-methionine evaluated to be 100
Procedure: as §1

L-aminoacylase S1 [3] = assay: Influence of metal ions on L-aminoacylase S1; format: biochemical, Streptomyces hachijoensis; settings: for Relative activity (%): 1 mM metal salt, 37° C. one hour, substrate N-Ac-DB-DOPS, no metal added = 100%
Procedure: (§2) A potassium phosphate buffer solution (pH 7.0) of the enzyme of the present invention was treated for one hour at various temperatures, and the remaining activity was measured. As the substrate, L-threo-N-acetyl-3-(3,4-dibenzyloxyphenyl)serine (hereinafter referred to simply as N-Ac-DB-DOPS) was employed, and the reaction was conducted at 37° C. for one hour, whereupon freed L-threo-3-(3,4-dibenzyloxyphenyl)serine (hereinafter referred to simply as DB-DOPS) was measured by a ninhydrin method to determine the activity.
L-aminoacylase S1 of the present invention is added to a 0.1 M Veronal buffer solution containing a final concentration of 1 mM of various metal salts, and left to stand at 37° C. for one hour. Then, it was reacted with N-Ac-DB-DOPS as the substrate at 37° C. for 1 hour, whereby the relative activity was measured by the above-mentioned method. The one where no metal was added, was evaluated to be 100%.

L-aminoacylase S2 [4] = assay: Influence of metal ions on L-aminoacylase S2; format: biochemical, Streptoverticillium rimofaciens; settings: for Relative activity (%): 1 mM metal salt, 37° C. 1 hour, substrate N-Ac-DB-DOPS, no metal salt added = 100%
Procedure: (§3) As the substrate, N-Ac-DB-DOPS was used, and the reaction was conducted at 37° C. for one hour, whereby freed DB-DOPS was measured by a ninhydrin method to determine the enzymatic activity.
L-aminoacylase S2 of the present invention was added to 0.1 M Veronal buffer solution containing as the final concentration 1 mM of various metal salts, and the reaction was conducted at 37° C. for 1 hour. Then, it was reacted with N-Ac-DB-DOPS as the substrate at 37° C. for one hour, whereupon the relative activity was measured by the above-mentioned method. The activity of the one where no metal salt was added, was evaluated to be 100%.

L-aminoacylase S2 [5] = assay: Influence of inhibitors on L-aminoacylase S2; format: biochemical, Streptoverticillium rimofaciens
Procedure: as §3, with “activity. As shown in the Figure, 20% is deactivated by the treatment at 60° C., and at least 70% is deactivated at 70° C. However, the enzyme is certainly stable at 50° C.” for “activity.”
The enzyme of the present invention was left to stand for one hour at 37° C. together with various inhibitors, and then reacted at 37° C. for one hour with N-Ac-DB-DOPS as the substrate, whereupon the remaining activity was measured by the above-mentioned method.

L-aminoacylase S1 [6] = assay: Influence of inhibitors on L-aminoacylase S1; format: biochemical, Streptomyces hachijoensis
Procedure: as §2, with “activity. As shown, 95% or more is deactivated by the treatment at pH 7.0 at 60° C., but the enzyme is certainly stable at a temperature of 50° C. or lower.” for “activity.”
The enzyme of the present invention is left to stand at 37° C. for one hour together with various inhibitors, and then reacted with N-Ac-DB-DOPS as the substrate at 37° C. for one hour, whereby the remaining activity was measured by the above-mentioned method.

[7] = Comparison of substrate profiles of L-aminoacylases, substrate L-N-acetyl-methionine; format: biochemical; set-up: key: +: active; -: inactive; settings: Table 7
Procedure: (§4) The substrate profiles of L-aminoacylase S1 and L-aminoacylase S2 of the present invention and conventional L-aminoacylases were measured.
(§5) L-aminoacylase S1 and L-aminoacylase S2 of the present invention was compared with commercially available L-aminoacylases in their activity by using N-acetyl derivatives of D- or L-methionine and L-threo-3-(3,4-dibenzyloxyphenyl) serine as substrates.

[8] = Comparison of substrate profiles of L-aminoacylases, substrate D-N-acetyl-methionine; format: biochemical; set-up: key: +: active; -: inactive; settings: Table 7
Procedure: as §4, §5

[9] = Comparison of substrate profiles of L-aminoacylases, substrate L-threo-N-acetyl-3-(3,4-dibenzyloxyphenyl)serine; format: biochemical; set-up: key: +: active; -: inactive; settings: Table 7
Procedure: as §4, §5

[10] = L-aminoacylase S2, inhibitor 1 mM, 37° C. one hour, substrate N-Ac-DB-DOPS
[11] = L-aminoacylase S1, inhibitor 1 mM, 37° C. one hour, substrate N-Ac-DB-DOPS

Relative activity (%) (L-aminoacylase S1 [1]): 197%
Relative activity (%) (L-aminoacylase S2 [2]): 286%
Molecule: CC(=O)N[C@@H](Cc1ccccc1)C(=O)O [L-N--acetyl-phenylalanine]

Relative activity (%) (L-aminoacylase S1 [1]): 80%
Relative activity (%) (L-aminoacylase S2 [2]): 98%
Molecule: CC(=O)N[C@@H](Cc1c[nH]c2ccccc12)C(=O)O [L-N--acetyl-tryptophan]

Relative activity (%) (L-aminoacylase S2 [2]): 137%
Molecule: CC(=O)N[C@@H](Cc1ccc(O)cc1)C(=O)O [L-N--acetyl-tyrosine]

Relative activity (%) (L-aminoacylase S1 [1]): 42%
Relative activity (%) (L-aminoacylase S2 [2]): 35%
Molecule: CC(=O)N[C@H](C(=O)O)C(C)C [L-N--acetyl-valine]

Relative activity (%) (L-aminoacylase S2 [2]): 10%
Molecule: CSCC[C@H](NC(=O)c1ccccc1)C(=O)O [L-N--benzoyl-methionine]

Relative activity (%) (L-aminoacylase S1 [1]): 4%
Relative activity (%) (L-aminoacylase S2 [2]): 5%
Molecule: CSCC[C@H](NC=O)C(=O)O [L-N--formyl-methionine]

Influence of inhibitors on activity (in words) (L-aminoacylase S2 [5]; L-aminoacylase S2): strongly inhibited
Remaining activity (%) (L-aminoacylase S2 [5]; [10]): 11%
Influence of inhibitors on activity (in words) (L-aminoacylase S2 [5]; L-aminoacylase S2, listed as cysteine): inhibited
Molecule: N[C@@H](CS)C(=O)O [L-cysteine]

Relative activity (%) (L-aminoacylase S1 [1]): 14%
Relative activity (%) (L-aminoacylase S2 [2]): 20%
Molecule: CC(=O)N[C@H](C(=O)O)[C@H](O)c1ccc(OCc2ccccc2)c(OCc2ccccc2)c1 [L-threo-N-acetyl-3-(3,4-dibenzyloxyphenyl)serine]

Relative activity (%) (L-aminoacylase S1 [3]): 107%
Relative activity (%) (L-aminoacylase S2 [4]): 95%
Molecule: [Mg+2] [Mg^++]

Relative activity (%) (L-aminoacylase S1 [3]): 61%
Relative activity (%) (L-aminoacylase S2 [4]): 31%
Molecule: [Mn+2] [Mn^++]
Influence of metal ions on activity (in words) (L-aminoacylase S2 [4]): prohibited; also recorded: strongly inhibited

Action of the enzyme on the substrate (in words) (L-aminoacylase S1 [1]): does not act
Relative activity (%) (L-aminoacylase S1 [1]): 0%
Action of the enzyme on the substrate (in words) (L-aminoacylase S2 [2]): does not act
Relative activity (%) (L-aminoacylase S2 [2]): 0%
Molecule: CC(=O)N[C@H]1C(O)O[C@H](CO)[C@@H](O)[C@@H]1O (stereo partly drawn) [N--acetyl-D-glucosamine, N-acetyl-D-glucosamine]

Relative activity (%) (L-aminoacylase S1 [1]): 2%
Relative activity (%) (L-aminoacylase S2 [2]): 2%
Molecule: CC(=O)NCC(=O)O [N--acetyl-glycine]

Relative activity (%) (L-aminoacylase S1 [3]): 102%
Relative activity (%) (L-aminoacylase S2 [4]): 71%
Molecule: [Zn+2] [Zn^++]

Remaining activity (%) (L-aminoacylase S1 [6]; [11]): 76%
Molecule: OCCS [β-mercaptoethanol]

Second part, the molecule before the results:

Molecule: CC(=O)NC(C)c1ccccc1 (racemic) [DL-N--acetyl-α-methylbenzylamine, DL-N-acetyl-α-methylbenzylamine]
Action of the enzyme on the substrate (in words) (L-aminoacylase S1 [1]): does not act
Relative activity (%) (L-aminoacylase S1 [1]): 0%
Action of the enzyme on the substrate (in words) (L-aminoacylase S2 [2]): does not act
Relative activity (%) (L-aminoacylase S2 [2]): 0%

Molecule: [Ag+] [Ag^+]
Influence of metal ions on activity (in words) (L-aminoacylase S1 [3]): strongly inhibited
Relative activity (%) (L-aminoacylase S1 [3]): 3%
Influence of metal ions on activity (in words) (L-aminoacylase S2 [4]): prohibited; also recorded: strongly inhibited
Relative activity (%) (L-aminoacylase S2 [4]): 0%

Molecule: [Ca+2] [Ca^++]
Relative activity (%) (L-aminoacylase S1 [3]): 72%
Relative activity (%) (L-aminoacylase S2 [4]): 98%

Molecule: [Co+2] [Co^++]
Influence of metal ions on activity (in words) (L-aminoacylase S1 [3]): activated
Relative activity (%) (L-aminoacylase S1 [3]): 162%
Influence of metal ions on activity (in words) (L-aminoacylase S2 [4]): prohibited; also recorded: strongly inhibited
Relative activity (%) (L-aminoacylase S2 [4]): 38%

Molecule: [Cu+2] [Cu^++]
Influence of metal ions on activity (in words) (L-aminoacylase S1 [3]): strongly inhibited
Relative activity (%) (L-aminoacylase S1 [3]): 14%
Influence of metal ions on activity (in words) (L-aminoacylase S2 [4]): prohibited; also recorded: strongly inhibited
Relative activity (%) (L-aminoacylase S2 [4]): 16%

Molecule: CSCC[C@@H](NC(C)=O)C(=O)O [D-N--acetyl-methionine]
Relative activity (%) (L-aminoacylase S1 [1]): 0%
Relative activity (%) (L-aminoacylase S2 [2]): 0%

Molecule: CC(=O)N[C@H](Cc1c[nH]c2ccccc12)C(=O)O [D-N--acetyl-tryptophan]
Relative activity (%) (L-aminoacylase S1 [1]): 0%
Relative activity (%) (L-aminoacylase S2 [2]): 0%

Molecule: [Fe+2] [Fe^++]
Influence of metal ions on activity (in words) (L-aminoacylase S1 [3]): strongly inhibited
Relative activity (%) (L-aminoacylase S1 [3]): 17%
Influence of metal ions on activity (in words) (L-aminoacylase S2 [4]): prohibited; also recorded: strongly inhibited
Relative activity (%) (L-aminoacylase S2 [4]): 18%

Molecule: [Hg+2] [Hg^++]
Influence of metal ions on activity (in words) (L-aminoacylase S1 [3]): strongly inhibited
Relative activity (%) (L-aminoacylase S1 [3]): 2%
Influence of metal ions on activity (in words) (L-aminoacylase S2 [4]): prohibited; also recorded: strongly inhibited
Relative activity (%) (L-aminoacylase S2 [4]): 15%

Molecule: CC(=O)N[C@H](C(=O)O)c1ccc(CO)c(O)c1 [L-N--acetyl-2-(4-hydroxymethyl-3-hydroxyphenyl)glycine]
Relative activity (%) (L-aminoacylase S1 [1]): 41%
Relative activity (%) (L-aminoacylase S2 [2]): 65%

Molecule: CC(=O)N[C@@H](C)C(=O)O [L-N--acetyl-alanine]
Relative activity (%) (L-aminoacylase S1 [1]): 7%
Relative activity (%) (L-aminoacylase S2 [2]): 8%

Molecule: CC(=O)N[C@@H](CCCNC(=N)N)C(=O)O [L-N--acetyl-arginine]
Relative activity (%) (L-aminoacylase S1 [1]): 85%
Relative activity (%) (L-aminoacylase S2 [2]): 61%

Molecule: CC(=O)N[C@@H](CCC(=O)O)C(=O)O [L-N--acetyl-glutamic acid]
Relative activity (%) (L-aminoacylase S1 [1]): 19%
Relative activity (%) (L-aminoacylase S2 [2]): 18%

Molecule: CC(=O)N[C@@H](Cc1c[nH]cn1)C(=O)O [L-N--acetyl-histidine]
Relative activity (%) (L-aminoacylase S1 [1]): 41%
Relative activity (%) (L-aminoacylase S2 [2]): 36%

Molecule: CC(=O)N[C@@H](CC(C)C)C(=O)O [L-N--acetyl-leucine]
Relative activity (%) (L-aminoacylase S1 [1]): 76%
Relative activity (%) (L-aminoacylase S2 [2]): 71%

Molecule: CSCC[C@H](NC(C)=O)C(=O)O [L-N--acetyl-methionine, L-N-acetyl-methionine]
Relative activity (%) (L-aminoacylase S1 [1]): 100%
Relative activity (%) (L-aminoacylase S2 [2]): 100%

Molecule: O=C(O)CI [Monoiodoacetic acid]
Influence of inhibitors on activity (in words) (L-aminoacylase S1 [6]): not inhibited
Remaining activity (%) (L-aminoacylase S1 [6]): 94%
Influence of inhibitors on activity (in words) (L-aminoacylase S2 [5]): strongly inhibited
Remaining activity (%) (L-aminoacylase S2 [5]): 3%

Molecule: [Ni+2] [Ni^++]
Influence of metal ions on activity (in words) (L-aminoacylase S1 [3]): strongly inhibited
Relative activity (%) (L-aminoacylase S1 [3]): 7%
Influence of metal ions on activity (in words) (L-aminoacylase S2 [4]): prohibited; also recorded: strongly inhibited
Relative activity (%) (L-aminoacylase S2 [4]): 33%

Molecule: O=C(O)c1cc[c]([Hg][Cl])cc1 [p-chloromercuribenzoate]
Influence of inhibitors on activity (in words) (L-aminoacylase S1 [6]; L-aminoacylase S1): inhibited
Remaining activity (%) (L-aminoacylase S1 [6]; [11]): 2%
Influence of inhibitors on activity (in words) (L-aminoacylase S2 [5]; L-aminoacylase S2): strongly inhibited
Remaining activity (%) (L-aminoacylase S2 [5]; [10]): 0%

B1: Acylase I: commercially available aminoacylase (hog kidney), manufactured by Miles Laboratory (protein, UniProt P37111 2-407, looked up)
Aminoacylase-1: ASKGREGEHPSVTLFRQYLRIRTVQPEPDYGAAVAFLEERARQLGLGCQKVEVVPGHVVTVLTWPGTNPTLSSILLNSHTDVVPVFKEHWSHDPFEGFKDADGYIYGRGAQDMKCVSIQYLEAVRRLKVEGHHFPRTIHMTFVPDEEVGGHQGMELFVKRPEFQALRAGFALDEGLASPTDAFTVFYSERSPWWLRVTSTGKPGHGSRFIEDTAAEKLHKVINSILAFREKEKQRLQSNQLKPGAVTSVNLTMLEGGVAYNVVPATMSACFDFRVAPDVDLKAFEEQLQSWCQAAGEGVTFEFVQKWMETQVTSTDDSDPWWAAFSGVFKDMKLALELEICPASTDARYIRAAGVPALGFSPMNHTPVLLHDHDERLHEAVFLRGVDIYTQLLSALASVPALPSES
Activity on substrate L-N-acetyl-methionine [7]: +
Activity on substrate D-N-acetyl-methionine [8]: -
Activity on substrate L-threo-N-acetyl-3-(3,4-dibenzyloxyphenyl)serine [9]: -
